Assay results as given in PubChem BioAssay (NCI).
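Method: 48-hour compound exposure of cells in 96-well plates, five concentrations, linear interpolation of endpoints. Here, GI50 denotes the concentration required for 50% inhibition of growth. Definition used: TGI = concentration required for complete inhibition of growth.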

How the values were obtained:
Test in all cases: NCI tumour cell line growth inhibition, 48 h
XF 498 CNS = tested on: XF 498 CNS
DMS 273 small cell lung = tested on: DMS 273 small cell lung
LXFL 529 NSCLC = tested on: LXFL 529 NSCLC
SNB-78 CNS = tested on: SNB-78 CNS
DMS 114 small cell lung = tested on: DMS 114 small cell lung
HOP-18 NSCLC = tested on: HOP-18 NSCLC
P388 leukemia = tested on: P388 leukemia
P388/ADR leukemia = tested on: P388/ADR leukemia
SN12K1 renal = tested on: SN12K1 renal
RXF-631 renal = tested on: RXF-631 renal

Compound | GI50 (XF 498 CNS) [µM] | TGI (XF 498 CNS) [µM] | TGI (DMS 273 small cell lung) [µM] | TGI (LXFL 529 NSCLC) [µM] | TGI (SNB-78 CNS) [µM] | TGI (DMS 114 small cell lung) [µM] | TGI (HOP-18 NSCLC) [µM] | TGI (P388 leukemia) [µM] | TGI (P388/ADR leukemia) [µM] | TGI (SN12K1 renal) [µM] | TGI (RXF-631 renal) [µM]
COc1cccc(/C=N/[N-]C(N)=O)c1[O-].[Cu+2].[OH3+].c1cnc2c(c1)ccc1cccnc12 | 2.3 | 6.36 | – | – | – | – | – | – | – | – | –
O=S1c2ccccc2N=C(c2ccc3ccccc3c2)CC1c1ccccc1 (centres undefined) | – | > 100 | > 100 | 29.8 | > 100 | – | – | – | – | – | –
O=c1oc2c(ccc3occc32)c(N2CCCCC2)c1-c1ccccc1 | – | > 100 | > 100 | – | > 100 | > 100 | > 100 | > 100 | > 100 | > 100 | –
CCN(CC)/[N+]([O-])=N/OC | – | > 100 | > 100 | > 100 | > 100 | – | – | – | – | – | –
O=CC(O)C(O)C(O)COc1cc(CO)cc2c1C(=O)c1ccccc1C2=O (centres undefined) | – | > 100 | > 100 | > 100 | > 100 | > 100 | > 100 | – | – | – | > 100
COC(=N)C(C)C | – | – | > 100 | > 100 | > 100 | > 100 | – | – | – | – | –
